Measurements taken from patent US8247556B2, “Method for preparing 6-substituted-7-aza-indoles” (Amgen Inc., priority 2005, dated 2012).

Experiments:
[1] = tested on: VEGF-stimulated HUVEC proliferation (Human Umbilical Vein Endothelial cells); experiment: HUVEC Proliferation Assay; type: cell-based; conditions: VEGF 50 ng/mL, 72 h, CyQuant fluorescent dye, read-out: inhibited VEGF-stimulated HUVEC proliferation at a level
How it was run: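 HUVEC (passage 2–3) were seeded in DMEM+10% FBS for 22 h, then pre-incubated 2–3 h with 5-point, 5-fold compound dilutions (0.25% DMSO). They were then stimulated with VEGF (50 ng/mL final) for 72 h at 37 °C. Proliferation was read by CyQuant fluorescence (485/530 nm) after freeze-thaw, and IC50 came from a 4-parameter fit.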

[2] = biological target: T1, CYP 3A4 (Homo sapiens, UniProt P08684); experiment: Human Liver Microsome CYP 3A4 Inhibition; type: in vitro ADME; conditions: human liver microsomes, midazolam substrate; read-out: inhibited CYP3A4 microsomes, IC50
T1 construct: followed by 222.2 ml of 20 mg/mL HLM (BD Gentest); tissue BD Gentest; host or cells: human liver microsomes
Description: Determining the IC-50 for Human Liver Microsome CYP 3A4 Inhibition
Postassium Phosphate Buffer pH 7.4 (39.667 mL) is chilled in an ice bath and added to a 50 ml plastic tube. A 2 mM midazolam solution is prepared. 111.1 ul of 2 mM midazolam is added to the buffer followed by 222.2 ml of 20 mg/mL HLM (BD Gentest). The incubation mixture was gently inverted and equilibrated at 37° C. for 5 min. A stock inhibitor solution is prepared, such as in DMSO. Incubation mixture (801 ul) is added into 96-well, 1.2 mL plastic tubes. Inhibitor is added at various concentrations (e.g. 30 uM to 120 nM). The tubes are sealed and mix by inverting 5 times gently. The incubation mixture containing inhibitor (270 uL) is added by aliquot into wells of a 1 mL, 96-well block (duplicate). The block is placed into a 37° C. water bath and equilibrated for 3 min. 10 mM NADPH (30 ml) is added to all samples. After 5 minutes, the reactions are stopped by adding 300 ml of Quench Solution [0.1% TFA in CH3CN]. 1′-OH-Midazolam-d313C (2 mg/mL 30 uL) is added, the block is gently vortexed then centrifuged at 3000 rpm for 10 minutes at 4° C. 50 μL of supernatant from all samples is added by aliquot into a shorter, 96-well block. The aliquoted supernatants are pooled with other assay(s) and HPLC Grade Water (50 ul) is added to all samples. After covering and shaking by vortex gently for 2 minutes, the solutions were analyzed by LC-MS (API 3000,5% MeOH w/0.1% AcOH to 95% MeOH w/0.1% AcOH). 37 nM ketoconazole is used as a control.

[3] = biological target: T2, CYP 2D6 (Homo sapiens, UniProt P10635); experiment: Human Liver Microsome CYP 2D6 Inhibition; type: in vitro ADME; conditions: human liver microsomes, bufuralol substrate; read-out: inhibited CYP2D6 microsomes, IC50
T2 construct: followed by 555.6 ml of 20 mg/mL HLM (BD Gentest); tissue BD Gentest; host or cells: human liver microsomes
How it was run: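 Pooled human liver microsomes with bufuralol in potassium phosphate pH 7.4, preincubated with inhibitor at 37 °C; reaction started with NADPH, quenched after 5 min with 0.1% TFA in acetonitrile. 1′-OH-bufuralol quantified by LC-MS with deuterated internal standard; IC50 determined, quinidine 500 nM as control.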

T2 sequence (P10635 whole entry): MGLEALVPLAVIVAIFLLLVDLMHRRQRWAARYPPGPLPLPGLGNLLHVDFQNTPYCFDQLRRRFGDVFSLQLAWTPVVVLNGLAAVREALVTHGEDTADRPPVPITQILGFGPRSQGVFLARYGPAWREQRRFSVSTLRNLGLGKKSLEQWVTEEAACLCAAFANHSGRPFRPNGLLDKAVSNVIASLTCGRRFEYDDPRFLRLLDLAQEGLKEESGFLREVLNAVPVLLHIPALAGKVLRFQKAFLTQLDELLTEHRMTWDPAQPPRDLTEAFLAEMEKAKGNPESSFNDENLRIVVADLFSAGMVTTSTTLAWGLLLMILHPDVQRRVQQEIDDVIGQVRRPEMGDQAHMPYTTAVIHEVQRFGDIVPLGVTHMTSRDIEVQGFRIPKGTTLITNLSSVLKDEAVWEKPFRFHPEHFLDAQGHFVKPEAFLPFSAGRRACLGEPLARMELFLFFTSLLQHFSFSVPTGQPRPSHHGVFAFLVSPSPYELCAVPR
T1 sequence (P08684 whole entry): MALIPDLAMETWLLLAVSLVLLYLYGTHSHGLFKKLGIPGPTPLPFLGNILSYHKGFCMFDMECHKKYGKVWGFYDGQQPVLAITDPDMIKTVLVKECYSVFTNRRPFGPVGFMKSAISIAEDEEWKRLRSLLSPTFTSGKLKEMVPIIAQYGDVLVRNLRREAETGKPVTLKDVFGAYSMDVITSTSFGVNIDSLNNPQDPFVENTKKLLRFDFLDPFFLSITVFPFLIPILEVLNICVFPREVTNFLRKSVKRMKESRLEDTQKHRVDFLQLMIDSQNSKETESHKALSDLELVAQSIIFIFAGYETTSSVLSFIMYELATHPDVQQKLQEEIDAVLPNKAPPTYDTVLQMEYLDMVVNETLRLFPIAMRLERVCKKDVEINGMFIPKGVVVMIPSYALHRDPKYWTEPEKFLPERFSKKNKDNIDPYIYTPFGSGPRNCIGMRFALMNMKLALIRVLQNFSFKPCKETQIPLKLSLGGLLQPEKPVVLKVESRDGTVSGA

| Structure (SMILES) | IC50 [1] [µM] | IC50 [2] [µM] | IC50 [3] [µM] |
| --- | --- | --- | --- |
| O=C(Nc1ccc2c(c1)CNCC21CC1)c1cccnc1NCc1ccnc2[nH]ccc12 [Example 10, N-(4-Spiro-1′-cyclopropane-1,2,3,4-tetrahydroisoquinolin-7-yl)-2-[(1H-pyrrolo[2,3-b]pyridin-4-ylmethyl)amino]nicotinamide] | < 0.5 | > 20 | > 20 |
| CC1(C)CNc2cc(NC(=O)c3cccnc3NCc3ccnc4[nH]ccc34)ccc21 [Example 16, N-(3,3-Dimethyl-2,3-dihydro-1H-indol-6-yl)-2-[(1H-pyrrolo[2,3-b]pyridin-4-ylmethyl)amino]nicotinamide] | < 0.5 | > 20 | > 20 |
| CC(C)(C)c1ccc(NC(=O)c2cccnc2NCc2ccnc3c2CCN3)cc1 [Example 28, N-(4-tert-Butylphenyl)-2-[(2,3-dihydro-1H-pyrrolo[2,3-b]pyridin-4-ylmethyl)amino]nicotinamide] | < 0.5 | > 20 | > 20 |
| CC1(C)CNc2cc(NC(=O)c3cccnc3NCc3ccnc4c3CCN4)ccc21 [Example 32, 2-[(2,3-Dihydro-1H-pyrrolo[2,3-b]pyridin-4-ylmethyl)amino]-N-(3,3-dimethyl-2,3-dihydro-1H-indol-6-yl)nicotinamide] | < 0.5 | > 20 | > 20 |
| CC1(C)CN(C(=O)[C@@H]2CCCO2)c2cc(NC(=O)c3cccnc3NCc3ccnc4[nH]ccc34)ccc21 [Example 34, N-{3,3-dimethyl-1-[(2S)-tetrahydrofuran-2-ylcarbonyl]-2,3-dihydro-1H-indol-6-yl}-2-[(1H-pyrrolo[2,3-b]pyridin-4-ylmethyl)amino]nicotinamide] | < 0.5 | > 20 | > 20 |
| O=C(Nc1cc(OC[C@H]2CCCO2)cc(C(F)(F)F)c1)c1cccnc1NCc1ccnc2[nH]ccc12 [Example 36, 2-[(1H-pyrrolo[2,3-b]pyridin-4-ylmethyl)amino]-N-[3-[(2R)-tetrahydrofuran-2-ylmethoxy]-5-(trifluoromethyl)phenyl]nicotinamide] | < 0.5 | > 20 | > 20 |
| CC1(C)CC(=O)Nc2cc(NC(=O)c3cccnc3NCc3c[nH]c4ncccc34)ccc21 [Example 41, N-(4,4-Dimethyl-2-oxo-1,2,3,4-tetrahydro-7-quinolinyl)-2-((1H-pyrrolo[2,3-b]pyridin-3-ylmethyl)amino)-3-pyridinecarboxamide] | < 0.5 | > 20 | > 20 |
| Cc1nc2cc(NC(=O)c3cccnc3NCc3ccnc4[nH]ccc34)ccc2s1 [Example 48, N-(2-methyl-1,3-benzothiazol-5-yl)-2-[(1H-pyrrolo[2,3-b]pyridin-4-ylmethyl)amino]nicotinamide] | < 0.5 | > 20 | > 20 |
| CC(C)(C)c1cc(NC(=O)c2cccnc2NCc2ccnc3[nH]ccc23)no1 [Example 49, N-(5-tert-butylisoxazol-3-yl)-2-[(1H-pyrrolo[2,3-b]pyridin-4-ylmethyl)amino]nicotinamide] | < 0.5 | > 20 | > 20 |
| O=C(Nc1ccc2ccccc2c1)c1cccnc1NCc1ccnc2[nH]ccc12 [Example 50, N-Naphthalen-2-yl-2-[(1H-pyrrolo[2,3-b]pyridin-4-ylmethyl)-amino]-nicotinamide] | < 0.5 | > 20 | > 20 |
| CC1(C)CNC(=O)c2cc(NC(=O)c3cccnc3NCc3ccnc4[nH]ccc34)ccc21 [Example 56, N-(4,4-Dimethyl-1-oxo-1,2,3,4-tetrahydro-isoquinolin-7-yl)-2-[(1H-pyrrolo[2,3-b]pyridin-4-ylmethyl)-amino]-nicotinamide] | < 0.5 | > 20 | > 20 |
| CN(C)CC(=O)Nc1cc(NC(=O)c2cccnc2NCc2ccnc3[nH]ccc23)ccc1C(C)(C)C [Example 59, N-[4-tert-Butyl-3-(2-dimethylamino-acetylamino)-phenyl]-2-[(1H-pyrrolo[2,3-b]pyridin-4-ylmethyl)-amino]-nicotinamide] | < 0.5 | > 20 | > 20 |
| CC1(C)CCCNc2cc(NC(=O)c3cccnc3NCc3ccnc4[nH]ccc34)ccc21 [Example 64, N-(5,5-Dimethyl-2,3,4,5-tetrahydro-1H-benzo[b]azepin-8-yl)-2-[(1H-pyrrolo[2,3-b]pyridin-4-ylmethyl)-amino]-nicotinamide] | < 0.5 | > 20 | > 20 |
| O=C(Nc1ccc(C(F)(F)F)cc1)c1cccnc1NCc1ccnc2[nH]ccc12 [Example 66, 2-[(1H-Pyrrolo[2,3-b]pyridin-4-ylmethyl)-amino]-N-(4-trifluoromethyl-phenyl)-nicotinamide] | < 0.5 | > 20 | > 20 |
| O=C(Nc1ccc(C(F)(F)C(F)(F)F)cc1)c1cccnc1NCc1ccnc2[nH]ccc12 [Example 67, N-(4-pentafluoroethyl-phenyl)-2-[(1H-pyrrolo[2,3-b]pyridin-4-ylmethyl)-amino]-nicotinamide] | < 0.5 | > 20 | > 20 |
| O=C(Nc1ccc(C(F)(F)C(F)(F)F)cc1)c1cc(F)cnc1NCc1ccnc2[nH]ccc12 [Example 76, 5-fluoro-N-(4-(pentafluoroethyl)phenyl)-2-((1H-pyrrolo[2,3-b]pyridin-4-ylmethyl)amino)-3-pyridinecarboxamide] | < 0.5 | > 20 | > 20 |
| Cc1cc(NC(=O)c2cc(F)cnc2NCc2ccnc3[nH]ccc23)ccc1C(C)C [Example 83, 5-fluoro-N-(3-methyl-4-(1-methylethyl)phenyl)-2-((1H-pyrrolo[2,3-b]pyridin-4-ylmethyl)amino)-3-pyridinecarboxamide] | < 0.5 | > 20 | > 20 |
| O=C(Nc1ccc(OC(F)(F)F)cc1)c1cc(F)cnc1NCc1ccnc2[nH]ccc12 [Example 96, 5-fluoro-2-((1H-pyrrolo[2,3-b]pyridin-4-ylmethyl)amino)-N-(4-((trifluoromethyl)oxy)phenyl)-3-pyridinecarboxamide] | < 0.5 | > 20 | > 20 |
| Cc1ccc(NC(=O)c2cc(F)cnc2NCc2ccnc3[nH]ccc23)cc1C(F)(F)F [Example 112, 5-fluoro-N-(4-methyl-3-(trifluoromethyl)phenyl)-2-((1H-pyrrolo[2,3-b]pyridin-4-ylmethyl)amino)-3-pyridinecarboxamide] | < 0.5 | > 20 | > 20 |
| O=C(Nc1ccc(C(F)(F)F)cc1)c1cc(F)cnc1NCc1ccnc2[nH]ncc12 [Example 118, 5-Fluoro-2-((1H-pyrazolo[3,4-b]pyridin-4-ylmethyl)amino)-N-(4-(trifluoromethyl)phenyl)-3-pyridinecarboxamide] | < 0.5 | > 20 | > 20 |
| Cc1cc(NC(=O)c2cc(F)cnc2NCc2ccnc3[nH]ncc23)ccc1C(C)C [Example 121, 5-Fluoro-N-(3-methyl-4-(1-methylethyl)phenyl)-2-((1H-pyrazolo[3,4-b]pyridin-4-ylmethyl)amino)-3-pyridinecarboxamide] | < 0.5 | > 20 | > 20 |
| CC(C)c1ccc(NC(=O)c2cc(F)cnc2NCc2ccnc3[nH]ncc23)cc1 [Example 123, 5-Fluoro-N-(4-(1-methylethyl)phenyl)-2-((1H-pyrazolo[3,4-b]pyridin-4-ylmethyl)amino)-3-pyridinecarboxamide] | < 0.5 | > 20 | > 20 |
| CC(C)(C)c1ccc(NC(=O)c2cc(F)cnc2NCc2ccnc3[nH]ncc23)cc1 [Example 125, N-(4-(1,1-Dimethylethyl)phenyl)-5-fluoro-2-((1H-pyrazolo[3,4-b]pyridin-4-ylmethyl)amino)-3-pyridinecarboxamide] | < 0.5 | > 20 | > 20 |
